Measurements as given in BindingDB's records for doi:10.7270/Q2JQ0ZH4 (Burnham Center For Chemical Genomics, 2011).

Target: T1, Mitochondrial import inner membrane translocase subunit TIM10 (Saccharomyces cerevisiae (strain ATCC 204508 / S288c), UniProt P87108)
T1 sequence (P87108 whole entry): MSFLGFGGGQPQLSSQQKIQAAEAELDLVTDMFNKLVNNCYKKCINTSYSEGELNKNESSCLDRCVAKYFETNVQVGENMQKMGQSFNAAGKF
Experiment: tim10-1 yeast luminescent signal inhibition – luminescence, S. cerevisiae, uHTS hits, counter-screen for tim23-1 inhibitor project, dose response (AID 504657)

Row | SMILES | IC50
1 | COC(=N)C(C#N)N=Cc1ccccc1Cl (stereo not given) [(E)-3-amino-2-[(2-chlorophenyl)methylideneamino]-3-methoxy-2-propenenitrile] | > 100 µM
2 | Cc1ccc2nc(-n3c(O)c[nH]c3=S)sc2c1 | > 100 µM
3 | O=C1c2ccccc2-c2n[nH]c3cccc1c23 | > 100 µM

Second part, the molecule after the results:

Row | IC50 | SMILES
4 | > 100 µM | Oc1ccccc1C1=NNC(c2ccccc2)S1 (stereo not given) [MLS001212798]
5 | > 100 µM | C(=CN=Nc1nc2ccccc2[nH]1)Cc1ccccc1 [MLS000390936]
